Measured values from paper PMC6299481, “Deciphering the Evolution of Cephalosporin Resistance to Ceftolozane-Tazobactam in Pseudomonas aeruginosa” (mBio, 2018).
Where two headings read alike, the source gives them in different places.

How the values were obtained:
[1] = system: E. coli DH10B pBC SK blaPDC-3 E221K; assay: MIC, MH agar dilution (CLSI); type: cell-based, Escherichia coli; settings: for MIC: Escherichia coli; for fold increase in MIC relative to the wild-type strain: E221K variant strain versus PDC-3 strain, E. coli DH10B
Description: (§1) Variant genes were synthesized into the pBC SK (-) vector by Celtek Bioscience (Franklin, TN). Mueller-Hinton (MH) agar-dilution MIC measurements were performed against isogenic transformants producing PDC-3 and nine variants of PDC-3 in pBC SK (-) according to the Clinical and Laboratory Standards Institute (CLSI) guidelines as previously described ([39], [48]). Avibactam, LP-06, and S02030 were tested at a constant 4 µg/ml in combination with various concentrations of ceftazidime. Piperacillin-tazobactam was maintained at a ratio of 8 piperacillin to 1 tazobactam. Ceftolozane-tazobactam was maintained at a ratio of 2 ceftolozane to 1 tazobactam. The MICs are reported as the concentrations at which bacterial growth was no longer observed. All MIC measurements were performed at least three times.

[2] = system: E. coli DH10B pBC SK blaPDC-3 E221G; assay: MIC, MH agar dilution (CLSI); type: cell-based; settings: Escherichia coli, β-lactam alone
Description: as §1

[3] = system: E. coli DH10B pBC SK blaPDC-3 E221A; assay: MIC, MH agar dilution (CLSI); type: cell-based; settings: Escherichia coli; β-lactam alone; E. coli DH10B pBC SK blaPDC-3 E221A (Table 2 prints E221)
Description: as §1

[4] = system: E. coli DH10B pBC SK blaPDC-3 G216R; assay: MIC, MH agar dilution (CLSI); type: cell-based; settings: Escherichia coli, β-lactam alone
Description: as §1

[5] = system: E. coli DH10B pBC SK blaPDC-1; assay: MIC, MH agar dilution (CLSI); type: cell-based; settings: Escherichia coli, β-lactam alone
Description: as §1

E. coli DH10B pBC SK = assay: MIC, MH agar dilution (CLSI); type: cell-based; settings: Escherichia coli, DH10BPBCSK, β-lactam alone
Description: as §1

[6] = system: E. coli DH10B pBC SK blaPDC-3 G216A; assay: MIC, MH agar dilution (CLSI); type: cell-based; settings: Escherichia coli; β-lactam alone; E. coli DH10B pBC SK blaPDC-3 G216A (Table 2 prints G216)
Description: as §1

P. aeruginosa PAO1 = assay: MIC, MH agar dilution (CLSI); type: cell-based; settings: Pseudomonas aeruginosa; β-lactam alone; P. aeruginosa PAO1, control strain expressing PDC-1
Description: as §1

[7] = system: E. coli DH10B pBC SK blaPDC-3; assay: MIC, MH agar dilution (CLSI); type: cell-based; settings: Escherichia coli
Description: as §1

[8] = system: E. coli DH10B pBC SK blaPDC-3 Y223A; assay: MIC, MH agar dilution (CLSI); type: cell-based; settings: Escherichia coli, β-lactam alone
Description: as §1

[9] = system: E. coli DH10B pBC SK blaPDC-3 V213A; assay: MIC, MH agar dilution (CLSI); type: cell-based; settings: Escherichia coli, β-lactam alone
Description: as §1

P. aeruginosa 18SH = assay: MIC, MH agar dilution (CLSI); type: cell-based; settings: Pseudomonas aeruginosa, β-lactam alone, control strain expressing PDC-3
Description: as §1

[10] = system: E. coli DH10B pBC SK blaPDC-3 V213G; assay: MIC, MH agar dilution (CLSI); type: cell-based; settings: Escherichia coli, β-lactam alone
Description: as §1

[11] = system: E. coli DH10B pBC SK blaPDC-3 Y223H; assay: MIC, MH agar dilution (CLSI); type: cell-based; settings: Escherichia coli, β-lactam alone
Description: as §1

[12] = system: E. coli DH10B strains expressing PDC-3 variants; assay: MIC, MH agar dilution (CLSI), variant strains taken together; type: cell-based, Escherichia coli; settings: for MICs when paired with avibactam: oxyimino cephalosporin paired with avibactam
Description: as §1

[13] = biological target: T1, E221K variant of PDC-3 β-lactamase (Pseudomonas aeruginosa, UniProt P24735, E247K/T105A); assay: Steady-state hydrolysis kinetics; type: biochemical
T1 construct: produces the corresponding PDC-3 protein without its signal peptide; made in house; host or cells: E. coli Origami 2 DE3, pET24a (+) blaPDC-3-E221K
Description: (§2) Steady-state kinetic and inhibitor parameters were determined by using an Agilent 8453 diode array spectrophotometer at room temperature as previously described ([20], [43], [49]). Each assay was performed in 10 mM phosphate-buffered saline (PBS) at pH 7.4 at room temperature (RT = ∼25°C) in a quartz cuvette with a 1-cm path length. Measurements were obtained using ceftolozane and ceftazidime. The kinetic parameters, Vmax and Km, were obtained with a nonlinear least-squares fit of the data (Henri Michaelis-Menten, equation 1) using Origin 7.5VR (OriginLab, Northampton, MA).(1) v=Vmax [S]/Km+[S]

PDC-3 β-lactamase [14] = biological target: T2, PDC-3 β-lactamase (Pseudomonas aeruginosa, UniProt P24735, T105A); assay: Competitive inhibition assay with nitrocefin as reporter substrate (Ki app); type: biochemical; settings: for Ki: 150 μM nitrocefin reporter substrate; for fold difference in Ki app between ceftolozane and ceftazidime: ceftolozane Ki app higher than ceftazidime Ki app
T2 construct: produces the corresponding PDC-3 protein without its signal peptide; made in house; host or cells: E. coli Origami 2 DE3, pET24a (+) blaPDC-3
Description: For competitive inhibition assays used to determine Ki app, 150 μM nitrocefin was used as the reporter substrate with increasing concentrations of ceftazidime or ceftolozane. Initial velocities were plotted against concentrations of ceftazidime or ceftolozane. Ki app obs were determined by dividing the slope by the y intercept. Ki app was calculated by correcting Ki app obs for nitrocefin affinity and concentration (equation 3). (3) Ki app=Ki app obs/[1+([NCF]/Km NCF)

E. coli DH10B = assay: MIC, MH agar dilution (CLSI); type: cell-based; settings: Escherichia coli, β-lactam alone
Description: as §1

PDC-3 β-lactamase [15] = biological target: T2, PDC-3 β-lactamase; settings: cited from earlier work; for Km: PDC-3, previously reported value; for kcat: PDC-3, reported value
PDC-3 β-lactamase [16] = biological target: T2, PDC-3 β-lactamase; assay: Steady-state hydrolysis kinetics; type: biochemical; settings: reporter substrate with PDC-3
Description: as §2

[17] = read-out: MIC value, β-lactam alone, E. coli DH10B pBC SK blaPDC-3
[18] = substrate hydrolysis by E221K, 10 mM PBS pH 7.4, room temperature
[19] = β-lactam alone, E. coli DH10B pBC SK blaPDC-3 E221K, read-out: MIC value
[20] = β-lactam alone, E. coli DH10B pBC SK blaPDC-3, read-out: MIC value

Compound | MIC ([1]; read-out: MIC value) [µg/mL] | MIC [2] [µg/mL] | MIC [3] [µg/mL] | MIC [4] [µg/mL] | MIC [5] [µg/mL] | MIC (E. coli DH10B pBC SK) [µg/mL] | MIC [6] [µg/mL] | MIC (P. aeruginosa PAO1) [µg/mL] | MIC [7, 17] [µg/mL] | MIC [8] [µg/mL] | MIC [9] [µg/mL] | MIC (P. aeruginosa 18SH) [µg/mL] | MIC [10] [µg/mL] | MIC [11] [µg/mL] | MIC (E. coli DH10B) [µg/mL] | further results
C[C@@H](O)[C@H]1C(=O)N2C(C(=O)O)=C(SCCN=CN)C[C@H]12 [Imipenem] | 0.5 | 0.5 | 0.5 | 0.5 | 0.25 | 0.25 | 0.5 | 2 | 0.25 | 0.5 | 0.5 | 2 | 0.5 | 0.5 |  | 
Cn1c(N)c(NC(=O)NCCN)c[n+]1CC1=C(C(=O)O)N2C(=O)[C@@H](NC(=O)/C(=N\OC(C)(C)C(=O)[O-])c3nsc(N)n3)[C@H]2SC1 [Ceftolozane] | 64 | 16 | 2 | 8 | 0.5 | 0.5 | 2 | 0.5 | 0.5 | 32 | 4 | 8 | 4 | 8 | 0.5 | MICs when paired with avibactam [12]: ≤ 1 mg/L; Km [13, 18]: 341 ± 64 µM; Vmax [13, 18]: 1.0 ± 0.1 µM/s; kcat [13, 18]: 10 ± 1 s⁻¹; Ki (PDC-3 β-lactamase [14]): 1300 µM; fold difference in Ki app between ceftolozane and ceftazidime (PDC-3 β-lactamase [14]): 60 fold; fold increase in MIC relative to the wild-type strain [1]: 128 fold; MIC ([1]; read-out: ceftolozane MIC): 64 µM; MIC ([7]; read-out: ceftolozane MIC, PDC-3 strain, Table 2): 0.5 µM
CC(C)(O/N=C(\C(=O)N[C@@H]1C(=O)N2C(C(=O)[O-])=C(C[n+]3ccccc3)CS[C@H]12)c1csc(N)n1)C(=O)O [Ceftazidime] | 64 | 32 | 8 | 32 | 2 | 0.25 | 16 | 1 | 2 | 32 | 32 | 64 | 16 | 16 | 0.25 | MICs when paired with avibactam [12]: ≤ 1 mg/L; Km [13, 18]: 174 ± 20 µM; Vmax [13, 18]: 0.9 ± 0.1 µM/s; kcat [13, 18]: 9 ± 1 s⁻¹; Ki (PDC-3 β-lactamase [14]): 22 µM; fold difference in Ki app between ceftolozane and ceftazidime (PDC-3 β-lactamase [14]): ~60 fold; Km (PDC-3 β-lactamase [15]; ref 20): 51.7 ± 2.1 µM; Km (PDC-3 β-lactamase [15]; ref 28): 35 µM; kcat (PDC-3 β-lactamase [15]; ref 4): 0.002 s⁻¹; kcat (PDC-3 β-lactamase [15]; ref 28): 0.02 s⁻¹; fold increase in MIC relative to the wild-type strain [1]: 32 fold
CO/N=C(\C(=O)N[C@@H]1C(=O)N2C(C(=O)O)=C(COC(C)=O)CS[C@H]12)c1csc(N)n1 [Cefotaxime] | 4 | 8 | 16 | 16 | 8 | < 0.06 | 8 | 16 | 8 | 16 | 16 | > 256 | 16 | 8 | < 0.06 | 
C[C@H]1[C@H](NC(=O)/C(=N\OC(C)(C)C(=O)O)c2csc(N)n2)C(=O)N1S(=O)(=O)O [Aztreonam] | 8 | 4 | 4 | 16 | 0.5 | 0.125 | 8 | 4 | 1 | 4 | 8 | 128 | 8 | 4 | 0.125 | 
CO/N=C(\C(=O)N[C@@H]1C(=O)N2C(C(=O)[O-])=C(C[N+]3(C)CCCC3)CS[C@H]12)c1csc(N)n1 [Cefepime] | 0.25 | 0.125 | 0.125 | 0.25 | 0.125 | < 0.06 | 0.125 | 4 | ≤ 0.06 | 0.25 | 0.125 | 128 | 0.125 | 0.125 | 0.125 | 
O=C(Cc1cccs1)N[C@@H]1C(=O)N2C(C(=O)O)=C(/C=C/c3ccc([N+](=O)[O-])cc3[N+](=O)[O-])CS[C@H]12 [nitrocefin] |  |  |  |  |  |  |  |  |  |  |  |  |  |  |  | Km (PDC-3 β-lactamase [16]): 20 ± 2 µM; Km ([13]; reporter substrate with E221K): 17 ± 3 µM
CCN1CCN(C(=O)N[C@@H](C(=O)N[C@@H]2C(=O)N3[C@@H]2SC(C)(C)[C@@H]3C(=O)O)c2ccccc2)C(=O)C1=O [Piperacillin] |  | 64 | 128 | 16 | 16 | 2 | 64 | 4 |  | 16 | 64 | 512 | 64 | 32 | 2 | MIC [1, 19]: 16 µg/mL; MIC [7, 20]: 16 µg/mL
CC1(C)S[C@@H]2[C@H](NC(=O)[C@H](N)c3ccccc3)C(=O)N2[C@H]1C(=O)O [Ampicillin] |  | 512 | 1020 | 1020 | 256 | 4 | 1020 | 2050 |  | 256 | 1020 | 4100 | 1020 | 512 | 4 | MIC [1, 19]: 256 µg/mL; MIC [7, 20]: 256 µg/mL
C[C@]1(Cn2ccnn2)[C@H](C(=O)O)N2C(=O)C[C@H]2S1(=O)=O [tazobactam] |  |  |  |  |  |  |  |  |  |  |  |  |  |  |  | fold attenuation of variant strain MICs compared to single antibiotic ([12]; piperacillin-tazobactam and ceftolozane-tazobactam combinations): 2- to 8 fold
